For orientation: IC50 means the concentration that inhibits the measured activity by half.

From US11485725B2, “Derivatives of piperlongumine and uses thereof” (Auransa Inc., priority 2017, dated 2022) come the findings set out here.

The test system of experiment [1] is HCT116 (colorectal cancer) cells. The experiment is described as follows: Resazurin-based cell viability assay using colorectal cancer cells. The note with it: Homo sapiens, HCT-116, 72 hr incubation. How it is done: Determination of Potency of Compounds in Cell Viability Assay Using Colorectal Cancer Cells
The blue dye resazurin-based assay was performed to determine cell viability and used according to manufacture protocol (Sigma®). HCT116 (colorectal cancer) cells were seeded in the DMEM medium (10% FBS serum). Approximately 1,500 cells were plated per well in 96 well plates. Cells were allowed to grow at 37° C. for 24 hr in 5% CO2 environment in a humidified incubator. Serially diluted compounds (100 μL) were added to the culture plate after 24 hr. After addition of compounds, plates were incubated for 72 hr. Experiment was terminated at the designated incubation time by replacing the medium with 100 μL of 1 mM of resazurin (Sigma®) prepared in culture medium (DMEM) and were further incubated in culture conditions for 4-6 hours. Fluorescence was recorded using a multimodal plate reader (Biotek Synergy Neo®) at an excitation wavelength of 535 nm and emission wavelength of 590 nm to obtain relative fluorescence units. Data analysis was done by subtracting the background fluorescence (medium blank) value from each reading and then normalizing with the vehicle control (DMSO treated cells) to obtain percent survival/proliferation. IC50 was calculated from percent survival values using GraphPad Prism® (see Table 1).
Background: The colour change of resazurin is a common sign of viable cells or microbes.

A further experiment concerns MOLP-8. The experiment is described as follows: In vitro cell viability assay (CellTiter-Glo, ATP levels), multiple myeloma cells. The experiment is classed as cell-based. The conditions noted are these: Homo sapiens, MOLP-8, 168 h, 7-day incubation, CellTiter-Glo, average values; read-out: MOLP-8 IC50. How it is done:
(§1) In Vitro Cell Viability Assay
(§2) The present disclosure provides a method for inhibiting cell viability, as measured by ATP levels. The method for inhibiting cell viability is drawn to contacting various cancer cells with the compounds described herein at various concentrations. The cancer cell lines were maintained in culture conditions at 37° C. in an atmosphere of 5% CO2 in air. The cells growing in an exponential growth phase were harvested and counted for plating. Compounds were incubated in two cancer cell types representing multiple myeloma (MOLP-8) and triple negative breast cancer (DU4475). Cells were plated at an optimized cell numbers per well in 96-well plates and allowed to attach to the plates overnight at approximately 80% confluency.
(§3) After addition of compounds, plates were incubated for 7-day. At the end of incubation period on day 8, media was removed and replaced with a solution of CellTiter-Glo™ reagent (Promega®) according to protocol. Luminescence was read using an EnVision® multi-label plate reader (Perkin-Elmer®), and signal intensity was calculated relative to positive and negative control wells. Cisplatin was included as the positive control. A dose-response calculation was performed in a non-linear regression fit and by using the Hill equation to calculate a concentration-response curve and 50% inhibitory concentration (IC50) values for each compound.
(§4) The average IC50 values of compounds 1-15 in multiple myeloma (MOLP-8) and triple negative breast cancer (DU4475) cells are shown in Table 1.
For orientation: Cellular ATP, detected with luciferase, serves as a proxy for viable cell number.

In another experiment the test system is DU4475. The experiment is described as follows: In vitro cell viability assay (CellTiter-Glo, ATP levels), triple negative breast cancer cells. The experiment is classed as cell-based. The conditions noted are these: Homo sapiens, DU-4475, 168 h, 7-day incubation, CellTiter-Glo, average values; read-out: DU4475 IC50. How it is done: as §1, §2, §3, §4

For the molecule `Cn1cc(/C=C(\C(=O)N2CCC=CC2=O)c2ccccc2)cn1` [Compound 84, (Z)-1-(3-(1-methyl-1H-pyrazol-4-yl)-2-phenylacryloyl)-5,6-dihydropyridin-2(1H)-one], the results for the IC50 (in experiment [1]; with MOLP-8; with DU4475) were 3710 nM, 1550 nM and 1630 nM, respectively.
In the case of `O=C1C=CCCN1C(=O)/C=C/C1CCCCC1` [Compound 2, (E)-1-(3-cyclohexylacryloyl)-5,6-dihydropyridin-2(1H)-one], the IC50 in experiment [1] came out at 2600 nM; in the experiment on MOLP-8, 1050 nM; with DU4475 it was 950 nM.
As for `O=C1C=CCCN1C(=O)/C=C/C1CCN(C2COC2)CC1` [Compound 45, (E)-1-(3-(1-(oxetan-3-yl)piperidin-4-yl)acryloyl)-5,6-dihydropyridin-2(1H)-one], the IC50 in experiment [1] amounted to 3240 nM; in the experiment on MOLP-8, 720 nM; with DU4475 it was 1350 nM.
The matching figures for `O=C1C=CCCCN1C(=O)/C=C/C1CCNCC1` [Compound 38, (E)-1-(3-(piperidin-4-yl)acryloyl)-6,7-dihydro-1H-azepin-2(5H)-one]: 920 nM, 230 nM and 1030 nM.
On the same counts, the results for `O=C1C=CCCN1C(=O)/C=C/C1CCN(CC2CC2)CC1` [Compound 44, (E)-1-(3-(1-(cyclopropylmethyl)piperidin-4-yl)acryloyl)-5,6-dihydropyridin-2(1H)-one] are 1350 nM, 490 nM and 1050 nM.
The matching figures for `O=C1C=CCCCN1C(=O)/C=C/c1ncccn1` [Compound 13, (E)-1-(3-(pyrimidin-2-yl)acryloyl)-1,5,6,7-tetrahydro-2H-azepin-2-one]: 1300 nM, 510 nM and 670 nM.
`C/C(=C\C1CCN(CC2CC2)CC1)C(=O)N1CCC=CC1=O` [Compound 77, (E)-1-(3-(1-(cyclopropylmethyl)piperidin-4-yl)-2-methylacryloyl)-5,6-dihydropyridin-2(1H)-one]: the IC50 in experiment [1] worked out at 7500 nM; with MOLP-8, 3340 nM; in the experiment with DU4475, 5440 nM.
As to `O=C1C=CCCCN1C(=O)/C=C/c1cccnc1` [Compound 4, (E)-1-(3-(pyridin-3-yl)acryloyl)-1,5,6,7-tetrahydro-2H-azepin-2-one], the 50% inhibitory concentration (IC50) stood at 1900 nM in experiment [1], 520 nM in the experiment with MOLP-8 and 590 nM in the experiment on DU4475.
For the molecule `O=C1C=CCCCN1S(=O)(=O)/C=C/c1ccccc1` [Compound 14, (E)-1-(styrylsulfonyl)-1,5,6,7-tetrahydro-2H-azepin-2-one], the IC50 in experiment [1] was 7000 nM; in the experiment with MOLP-8 it was 3510 nM; in the experiment on DU4475, 3040 nM.
Take `O=C1C=CCCCN1C(=O)/C=C/c1ccccn1` [Compound 8, (E)-1-(3-(pyridin-2-yl)acryloyl)-1,5,6,7-tetrahydro-2H-azepin-2-one]: the IC50 came to 1500 nM in experiment [1], 410 nM in the experiment with MOLP-8 and 500 nM with DU4475.
The matching figures for `O=C1C=CCCCN1C(=O)/C=C/c1cnc2ccccc2c1` [Compound 3, (E)-1-(3-(quinolin-3-yl)acryloyl)-1,5,6,7-tetrahydro-2H-azepin-2-one]: 1700 nM, 360 nM and 760 nM.
Take `C/C(=C\C1CCN(C(=O)Nc2ccc(F)cc2)CC1)C(=O)N1CCC=CC1=O` [Compound 73, (E)-N-(4-fluorophenyl)-4-(2-methyl-3-oxo-3-(6-oxo-3,6-dihydropyridin-1(2H)-yl)prop-1-en-1-yl)piperidine-1-carboxamide]: the IC50 in experiment [1] came out at 4280 nM; in the experiment on MOLP-8, 950 nM; with DU4475, 1620 nM.
`CC(C)(C)OC(=O)N1CCC(/C=C/C(=O)N2CCC=CC2=O)CC1` [Compound 19, tert-butyl (E)-4-(3-oxo-3-(6-oxo-3,6-dihydropyridin-1(2H)-yl)prop-1-en-1-yl)piperidine-1-carboxylate]: the IC50 worked out at 1970 nM in experiment [1], 410 nM with MOLP-8 and 820 nM in the experiment on DU4475.
The matching figures for `O=C1C=CCCN1C(=O)/C=C/c1cnc2c(c1)OCCO2` [Compound 24, (E)-1-(3-(2,3-dihydro-[1,4]dioxino[2,3-b]pyridin-7-yl)acryloyl)-5,6-dihydropyridin-2(1H)-one]: 1900 nM, 320 nM and 680 nM.
Consider `CC1(C)C=CC(=O)N(C(=O)/C=C/c2ncccn2)C1` [Compound 33, (E)-5,5-dimethyl-1-(3-(pyrimidin-2-yl)acryloyl)-5,6-dihydropyridin-2(1H)-one], for which the IC50 in experiment [1] turned out to be 4070 nM; in the experiment on MOLP-8, 560 nM; in the experiment with DU4475, 1300 nM.
Take `CC1C=CC(=O)N(C(=O)/C=C/c2ncccn2)C1` (stereo not drawn) [Compound 43, (E)-5-methyl-1-(3-(pyrimidin-2-yl)acryloyl)-5,6-dihydropyridin-2(1H)-one]: the IC50 in experiment [1] turned out to be 1270 nM; in the experiment with MOLP-8, 280 nM; with DU4475 it was 530 nM.
On the same counts, the results for `C/C(=C\C1CCNCC1)C(=O)N1CCC=CC1=O` [Compound 88, (E)-1-(2-methyl-3-(piperidin-4-yl)acryloyl)-5,6-dihydropyridin-2(1H)-one 2,2,2-trifluoroacetate] are 7060 nM, 3780 nM and 6560 nM.
Turning to `O=C1C=CCCN1C(=O)/C=C/C1CCN(c2ccccn2)CC1` [Compound 74, (E)-1-(3-(1-(pyridin-2-yl)piperidin-4-yl)acryloyl)-5,6-dihydropyridin-2(1H)-one], the IC50 stood at 2580 nM in experiment [1], 660 nM with MOLP-8 and 1000 nM in the experiment with DU4475.
On the same counts, the results for `CC(C)(C)CN1CCC(/C=C/C(=O)N2CCC=CC2=O)CC1` [Compound 62, (E)-1-(3-(1-neopentylpiperidin-4-yl)acryloyl)-5,6-dihydropyridin-2(1H)-one] are 1730 nM, 310 nM and 580 nM.
As to `CC(C)(C)/C=C/C(=O)N1CCC=CC1=O` [Compound 28, (E)-1-(4,4-dimethylpent-2-enoyl)-5,6-dihydropyridin-2(1H)-one], the IC50 was determined as 3530 nM in experiment [1], 490 nM in the experiment with MOLP-8 and 1380 nM in the experiment on DU4475.
As for `O=C1C=CCCN1C(=O)/C=C/c1cnn(C2CC2)c1` [Compound 86, (E)-1-(3-(1-cyclopropyl-1H-pyrazol-4-yl)acryloyl)-5,6-dihydropyridin-2(1H)-one], the IC50 in experiment [1] came out at 3830 nM; in the experiment on MOLP-8 it was 850 nM; in the experiment with DU4475, 1670 nM.
Take `O=C(/C=C/c1ncccn1)N1CCC=C(Br)C1=O` [Compound 40, 3-bromo-1-[(2E)-3-(pyrimidin-2-yl)prop-2-enoyl]-5,6-dihydropyridin-2(1H)-one]: the figures for the IC50 (in experiment [1]; with MOLP-8; with DU4475) were 360 nM, 40 nM and 100 nM, respectively.
Turning to `O=C1C=CCCN1C(=O)C=C1c2ccccc2-c2ccccc21` [Compound 10, 1-(2-(9H-fluoren-9-ylidene)acetyl)-5,6-dihydropyridin-2(1H)-one], the IC50 is 1900 nM in experiment [1], 2120 nM with MOLP-8 and 950 nM with DU4475.
Turning to `C/C(=C/C1CCNCC1)C(=O)N1CCC=CC1=O` [Compound 87, (Z)-1-(2-methyl-3-(piperidin-4-yl)acryloyl)-5,6-dihydropyridin-2(1H)-one 2,2,2-trifluoroacetate], the IC50 in experiment [1] stood at 10100 nM; in the experiment on MOLP-8, 3660 nM; in the experiment with DU4475, 5530 nM.
Take `COc1cc(/C=C/S(=O)(=O)N2CCC=CC2=O)cc2c1OCCO2` [Compound 76, 1-{[(E)-2-(8-methoxy-2,3-dihydro-1,4-benzodioxin-6-yl)ethenyl]sulfonyl}-5,6-dihydropyridin-2(1H)-one]: the IC50 in experiment [1] is 1850 nM; in the experiment with MOLP-8, 563 nM; in the experiment on DU4475 it was 1000 nM.
On the same counts, the results for `COc1cc(/C=C/C(=O)N2CC(C)(C)C=CC2=O)cc2c1OCCO2` [Compound 30, (E)-1-(3-(8-methoxy-2,3-dihydrobenzo[b][1,4]dioxin-6-yl)acryloyl)-5,5-dimethyl-5,6-dihydropyridin-2(1H)-one] are 9900 nM, 2800 nM and 5500 nM.
